# Laboratory results from the supplement of paper PMC10307832.
# Key:
# Test in all cases: relative viability (nuclei count vs DMSO), 5 days (fraction); higher = more cells survive
# [1] = compound: O=S(=O)(c1ccccc1)N(CC(F)(F)F)c1ccc(C(O)(C(F)(F)F)C(F)(F)F)cc1 + Cc1nc(Nc2ncc(C(=O)Nc3c(C)cccc3Cl)s2)cc(N2CCN(CCO)CC2)n1 [Dasatinib] (partner 0.075 µM)
# Outline: (§1)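 Lung cancer cell lines in 1536-well plates got either a single drug or a fixed anchor-drug dose together with five library-drug doses (not always all listed) in √10 steps, by pin tool, on the day after seeding. Nuclei were counted after 5 days, and relative viability is the treated-to-vehicle ratio of nuclei counts. Values are medians of duplicate plates.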
# [2] = compound: O=S(=O)(c1ccccc1)N(CC(F)(F)F)c1ccc(C(O)(C(F)(F)F)C(F)(F)F)cc1 + Cc1cc(Nc2cc(N3CCN(C)CC3)nc(Sc3ccc(NC(=O)C4CC4)cc3)n2)n[nH]1 [Tozasertib] (partner 0.1 µM)
# Outline: as §1
# [3] = compound: C1=CC2=C(C=CC(=C2)C=C3C(=O)NC(=NCC4=CC=CS4)S3)N=C1 [RO-3306] + COc1cc2c(Oc3ccc(NC(=O)C4(C(=O)Nc5ccc(F)cc5)CC4)cc3F)ccnc2cc1OCCCN1CCOCC1 [Foretinib] (partner 0.25 µM)
# Outline: as §1
# [4] = compound: O=S(=O)(c1ccccc1)N(CC(F)(F)F)c1ccc(C(O)(C(F)(F)F)C(F)(F)F)cc1 + CC(C)C[C@H](NC(=O)[C@H](Cc1ccccc1)NC(=O)c1cnccn1)B(O)O [Bortezomib] (partner 0.002 µM)
# Outline: as §1
# [5] = compound: O=S(=O)(c1ccccc1)N(CC(F)(F)F)c1ccc(C(O)(C(F)(F)F)C(F)(F)F)cc1 + CCNC(=O)c1noc(-c2cc(C(C)C)c(O)cc2O)c1-c1ccc(CN2CCOCC2)cc1 [Luminespib] (partner 0.01 µM)
# Outline: as §1
Cell Line,relative viability ([1]; first compound 0.8 µM),relative viability ([1]; first compound 2.53 µM),relative viability ([1]; first compound 8 µM),relative viability ([2]; first compound 0.8 µM),relative viability ([2]; first compound 2.53 µM),relative viability ([2]; first compound 8 µM),relative viability ([3]; first compound 0.01 µM),relative viability ([3]; first compound 0.03162 µM),relative viability ([3]; first compound 0.1 µM),relative viability ([3]; first compound 0.3162 µM),relative viability ([3]; first compound 1 µM),relative viability ([4]; first compound 0.8 µM),relative viability ([4]; first compound 2.53 µM),relative viability ([4]; first compound 8 µM),relative viability ([5]; first compound 0.8 µM),relative viability ([5]; first compound 2.53 µM),relative viability ([5]; first compound 8 µM)
NCI-H23,1.03,1.04,0.907,0.315,0.307,0.331,0.972,0.728,0.833,1.08,0.978,1.45,1.23,1.09,0.2,0.206,0.255
NCI-H2405,0.117,0.15,0.134,0.889,0.749,0.711,1.05,1.06,1.03,1.03,0.961,1.02,0.952,0.885,0.718,0.616,0.646
HARA,0.294,0.287,0.242,0.0946,0.0891,0.102,1.08,0.58,0.884,0.882,0.767,1.12,1.04,1.04,0.652,0.263,0.414
HCC-44,–,–,–,–,0.862,0.894,–,–,–,–,–,1.06,0.871,0.863,–,1.13,1.08
CAL-12T,0.331,0.216,0.392,0.299,0.331,0.242,1.18,1.06,1.16,1.07,1.23,–,0.964,0.958,0.38,0.251,0.354
NCI-H838,0.273,0.303,0.325,0.278,0.268,0.25,1.13,0.966,1.06,1.16,1.06,0.907,0.863,0.906,0.24,0.257,0.299
LK-2,0.36,0.37,0.432,0.174,0.188,0.189,1.28,–,1.5,1.17,1.37,–,–,–,0.175,0.174,0.227
NCI-H358,0.124,0.144,0.148,0.107,0.0905,0.0846,0.541,0.57,0.623,0.786,0.493,–,–,–,0.195,0.332,0.352
SW 1573,0.576,0.46,0.451,0.182,0.17,0.215,0.89,0.879,0.934,0.993,0.887,1.34,0.936,0.811,0.266,0.218,0.207
LCLC-103H,0.553,0.484,0.51,0.541,0.447,0.349,0.695,0.647,0.779,0.719,0.835,1.18,1.04,1.12,1.07,0.862,0.845
HCC-827,0.37,0.36,0.316,0.419,0.414,0.406,1.07,1,1.05,1.03,1.06,1.08,0.979,1.04,0.439,0.589,0.573
NCI-H1666,0.765,0.68,0.683,0.627,0.62,0.545,0.936,0.891,0.905,1.04,0.935,0.948,0.696,0.685,0.831,0.84,0.889
NCI-H460,0.654,0.459,0.574,0.392,0.417,0.243,1,0.894,1.08,1.08,1.08,1.29,1.03,1.02,0.034,0.0266,0.0324
NCI-H2087,0.72,0.713,0.74,0.255,0.258,0.188,0.985,1.01,1.13,1.24,0.982,0.915,0.82,0.793,0.17,0.146,0.205
NCI-H2085,0.226,0.238,0.204,0.809,0.727,0.688,0.866,0.766,0.78,1.11,0.94,1.12,0.943,1.02,0.46,0.371,0.428
NCI-H1299,–,–,–,–,–,–,1.17,1.1,1.15,1.14,1.17,1.02,0.981,0.946,–,–,–
ChaGo-K-1,0.706,0.648,0.637,0.225,0.209,0.235,0.849,0.783,0.868,0.816,0.702,1.1,0.933,1.47,0.573,0.719,0.706
A-427,0.737,0.653,0.846,0.186,0.216,0.298,0.923,0.937,1.07,1.06,1.13,0.973,0.916,1.07,0.919,0.774,1.05
NCI-H2170,0.568,0.588,0.444,0.784,0.616,0.629,0.929,0.925,0.98,1.11,0.985,–,–,–,0.855,0.474,0.489
NCI-H441,0.868,0.501,0.577,0.58,0.588,0.697,0.911,0.937,0.944,1.07,0.937,0.737,0.479,0.597,0.317,0.37,0.372

Cell Line,relative viability ([1]; first compound 0.8 µM),relative viability ([1]; first compound 2.53 µM),relative viability ([1]; first compound 8 µM),relative viability ([2]; first compound 0.8 µM),relative viability ([2]; first compound 2.53 µM),relative viability ([2]; first compound 8 µM),relative viability ([3]; first compound 0.01 µM),relative viability ([3]; first compound 0.03162 µM),relative viability ([3]; first compound 0.1 µM),relative viability ([3]; first compound 0.3162 µM),relative viability ([3]; first compound 1 µM),relative viability ([4]; first compound 0.8 µM),relative viability ([4]; first compound 2.53 µM),relative viability ([4]; first compound 8 µM),relative viability ([5]; first compound 0.8 µM),relative viability ([5]; first compound 2.53 µM),relative viability ([5]; first compound 8 µM)
NCI-H2347,0.263,0.24,0.289,0.628,0.523,0.646,0.982,0.503,0.868,0.702,0.741,1.32,0.819,0.92,0.512,0.41,0.286
Calu-6,–,–,–,–,–,–,0.948,0.957,0.973,0.942,0.82,0.885,0.852,0.769,–,–,–
SW 900,0.625,0.563,0.478,0.528,0.426,0.404,0.965,1.12,0.68,0.806,0.644,–,–,–,0.181,0.192,0.172
NCI-H2342,0.286,0.31,0.326,0.483,0.609,0.493,1.13,0.889,1.08,1.05,0.885,–,–,–,0.809,0.782,0.628
HCC-78,0.374,0.336,0.919,0.691,0.375,0.433,0.487,0.568,0.595,0.564,0.573,0.531,0.39,0.52,–,–,–
NCI-H1793,0.375,0.335,0.347,0.31,0.249,0.269,0.654,0.265,0.627,0.748,0.735,–,–,–,0.162,0.149,0.172
NCI-H1944,0.222,0.233,0.191,0.263,0.263,0.234,0.966,0.884,0.818,0.92,0.915,–,–,–,0.946,0.786,0.68
HCC-366,0.856,0.674,0.606,0.133,0.0684,0.0773,0.91,0.96,0.942,0.884,0.931,1.23,1.08,1.08,–,–,–
NCI-H1648,–,–,–,0.408,0.293,0.339,–,–,–,–,–,–,–,–,–,–,–
NCI-H522,0.821,0.904,1.07,0.567,0.488,0.615,–,–,–,–,–,–,–,–,1.39,1.27,1.07
EBC-1,–,–,–,–,–,–,0.0936,0.118,0.101,0.121,0.0921,0.405,0.357,0.415,–,–,–
NCI-H1623,0.528,0.51,0.493,0.399,0.396,0.366,0.908,0.749,0.761,0.823,0.739,–,–,–,0.625,0.411,0.491
NCI-H1792,0.712,0.587,0.506,–,–,–,–,–,–,–,–,0.973,0.842,0.737,0.419,0.359,0.269
A549,–,–,–,–,–,–,1.1,0.891,1,0.883,0.818,–,–,–,–,–,–
NCI-H1703,–,–,–,–,–,–,0.392,–,0.325,0.389,0.345,0.389,0.185,0.381,–,–,–
IA-LM,–,–,–,–,–,–,1.48,–,0.956,1.12,1.3,0.727,0.522,0.77,–,–,–
NCI-H1395,0.321,0.375,0.414,0.737,0.671,0.82,0.981,0.902,0.895,0.945,0.824,–,–,–,0.75,0.701,0.714
SK-MES-1,0.318,0.332,0.255,1.11,1.05,0.962,1.06,0.425,0.996,0.782,0.976,–,–,–,0.677,0.744,0.533
NCI-H1563,0.402,0.427,0.435,–,–,–,0.847,1.03,0.881,0.956,0.939,0.915,0.927,0.685,0.545,0.485,0.551
